# Reference: a melting point compilation (Tetko et al.; mined from patent text by program, amines drawn as free bases though some values may be those of a salt)
row,SMILES,melting point
1,CN1CCN(Cc2ccc(NC(=O)c3ccc(Cl)c(C#Cc4ccc(NC5CC5)nn4)c3)cc2C(F)(F)F)CC1,133 to 134 °C
2,CN(C(=O)CN(C(=O)CNC(=O)OC(C)(C)C)c1ccccc1OCc1ccccc1)c1ccccc1,168 to 170 °C
3,CCC(C(=O)O)c1ccc(C(=O)c2ccc(Cl)cc2)n1C (stereo not given),108 to 112 °C
4,O=C(CCc1conc1-c1ccc(Cl)cc1)NCc1cccc(C(F)(F)F)c1,80 to 81 °C
5,CN=C(NC#N)NCCSCc1ccc(CNC)o1,81 to 85 °C
6,COc1ccc2cc(C(C)C(=O)NCCN(O)C(N)=O)ccc2c1 (stereo not given),162 °C
7,COc1ccccc1NC(=O)Nc1nc(Nc2ccccc2-c2ccccc2)nc(N2CCCCC2C(=O)O)n1 (stereo not given),150 to 154 °C
8,CC(=O)N1C(=O)C(C(=O)Cc2cccs2)c2ccccc21 (stereo not given),136 to 137 °C
9,CN(C)c1ccc(/C=C/c2ccccc2F)cc1,124 to 126 °C
10,CC(C)(C)OC(=O)COC1CCN(C(=O)[C@]2(C)CCCN2C(=O)c2ccc(C#N)cc2)CC1,180 to 182 °C
11,COC(=O)Nc1ccc(CN2OCC(C)(C)C2=O)c(Cl)c1,165 to 167 °C
12,COc1c(OCc2ccccc2)cc(C(=O)Cl)cc1OCc1ccccc1,124 to 127 °C
13,CCOC(=O)c1cccc2c(=O)c(C)c(-c3ccc(OC)cc3)oc12,137 to 139 °C
14,CNc1c(CC(C)O)cc([N+](=O)[O-])cc1[N+](=O)[O-] (stereo not given),132 °C
15,COc1ccc(C=Cc2cc3cc(Br)ccc3o2)cc1,190 to 194 °C
16,CCc1cccc(CC)c1NC(=O)c1c2n(c(C)c(Br)c1=O)CCCC2,208 to 210 °C
17,Cc1cccc(NC(=O)NCC(=O)N(CC(=O)N(C)c2ccc(Cl)cc2)c2ccccc2)c1,160 °C
18,O=c1ccc2ccc(OCCCN3CCN(c4ccccc4)CC3)cc2o1,117 to 118 °C
19,COc1ccc(C=CC(=O)Nc2ccc(C)cc2C(=O)O)cc1OC,190 to 191 °C
20,COc1ccc(CN2CCc3c(c(=O)oc4cc(OC)ccc34)C2)cc1,101 to 103 °C
21,CCOC(=O)c1ccccc1C=C(C)C=CC=C(C)CCC=C(C)C,47 to 48 °C
22,CCCOc1cc(C#N)ccc1C(C)=O,99.5 to 100 °C
23,O=C(CCC(=O)N1CCC[C@H]1C(=O)O)c1cccs1,100 to 102 °C
24,COc1ccc(C(=O)c2sc3ccccc3c2-c2ccccc2)cc1,94 to 95 °C
25,CCSc1c(C)nn(-c2c(Cl)cc(C(F)(F)F)cc2Cl)c1N,117 °C

row,SMILES,melting point
1,O=C(N[C@H]1CCOC1=O)OCc1ccccc1,129 to 130 °C
2,CCCCCCCCCCCCCCN(C(=O)CCCCCCCCCCC)C1(N)OC(CO)C(O)C(O)C1C(=O)CNC(=O)C(C)(N)C(=O)C(C)N (stereo not given),132 to 134 °C
3,CC(C)(C)OC(=O)c1ncn2c1cc(N1CCN(C(=O)OC(C)(C)C)CC1)c1cc(Cl)ccc12,246 to 247 °C
4,O=[N+]([O-])c1nccn1CCCl,85 to 87 °C
5,Cc1cc2c(-c3cccc(C=O)c3)c(CC(=O)Nc3ccc(Cl)cc3C(F)(F)F)c(=O)oc2cc1Cl,232 to 233 °C
6,COC(=O)c1cc(NC(=O)COc2ccccc2)c2cc(Cc3ccc(F)cc3)cnc2c1O,172 to 173 °C
7,NC(=O)Cc1cc(Oc2ccc3c(ccn3C(=O)Nc3ccc(N4CCS(=O)(=O)CC4)c(C(F)(F)F)c3)c2)ncn1,284 to 285 °C
8,Cc1oc(-c2cccc(Br)c2)nc1CCO,92 to 93 °C
9,CC(CO)NC(=O)C(NC(=O)OCc1ccccc1)C(Cc1ccccc1)C(=O)O (stereo not given),110 to 111 °C
10,O=C(Nc1ccc(N2C[C@H]3CN(C(=O)OCc4ccccc4)C[C@H]3C2)c(F)c1)OCc1ccccc1,121 to 122 °C
11,CS(=O)(=O)N1CCOc2ccc(C3=NNC(=O)CC3)cc21,245 °C
12,Clc1cc(Cl)c2c(CCBr)coc2c1,43 °C
13,NOC(C=CCBr)C(=O)O (stereo not given),53 to 55 °C
14,NC(=O)[C@H]1CN(c2ccc(C3=CCOCC3)c(F)c2)C(=O)O1,164 to 169 °C
15,CCOc1ccc2nc3ccc(C(=O)O)cn3c(=O)c2c1,260 to 265 °C
16,CC(C)c1ccc2c(c1)c(-c1ccccc1Cl)c(NC(=O)Nc1cccc(C(F)(F)F)c1)c(=O)n2C,209 to 210 °C
17,ON=C(c1cccc2nc(N[C@@H]3CCc4ccccc43)ccc12)C1CC1,151 °C
18,COc1ccnc2c1C(=O)CC(c1ccccc1)C2 (stereo not given),130 to 131 °C
19,CCOC(=O)c1c(OCN2C(=O)c3c(C(C)C)cc(OC)cc3S2(=O)=O)nc2ncccn2c1=O,189 to 191 °C
20,COc1ccc2cc(-c3ccncn3)ccc2n1,164 to 165 °C
21,CC(=O)c1cccc([C@H]2C[C@H]2NC(=O)Nc2ccc(Cl)cn2)c1 (racemic),144 to 145 °C
22,Cn1ncc(/C=C/C(=O)Nc2ccc(CC(C)(C)O)cc2)c1-c1ccc(F)cc1,188 to 189 °C
23,CCCC(=O)c1cc2c(=O)n(NS(C)(=O)=O)c(=O)[nH]c2cc1C(F)(F)F,236 to 239 °C
24,Cc1cc(-c2nc3cc(OCCOC(C)C)cc(OCCOC(C)C)c3c(=O)[nH]2)cc(C)n1,124 to 125 °C
25,Cc1cccc(C)c1N(C(=O)CN)C(=O)CCl,135 to 137 °C
